Measured values published in ChEMBL document CHEMBL1201862, “PubChem BioAssay data set” (2004).
Calls of active or inactive are those of the source.

Experiments:
[1] = target: Peroxisome proliferator-activated receptor gamma/Nuclear receptor coactivator 2 (Homo sapiens, UniProt P37231); assay type: functional;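 note: agonist potency for raising coactivator recruitment to the receptor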
[2] = target: Peroxisome proliferator-activated receptor gamma/Nuclear receptor coactivator 1 (Homo sapiens, UniProt P37231); assay type: functional;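 note: agonist potency as compounds enhance coactivator SRC-1 recruitment to PPARgamma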
[3] = target: Peroxisome proliferator-activated receptor gamma/Nuclear receptor coactivator 3 (Homo sapiens, UniProt P37231); assay type: functional;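 note: agonist potency for raising coactivator recruitment to the receptor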
[4] = target: T1, Cytochrome P450 2D6 (Homo sapiens, UniProt P10635); test: qHTS Assay for Inhibitors and Substrates of Cytochrome P450 2D6. [Related pubchem assays: 410 ]; assay type: ADME; settings: read-out: Potency
T1 sequence (P10635 whole entry): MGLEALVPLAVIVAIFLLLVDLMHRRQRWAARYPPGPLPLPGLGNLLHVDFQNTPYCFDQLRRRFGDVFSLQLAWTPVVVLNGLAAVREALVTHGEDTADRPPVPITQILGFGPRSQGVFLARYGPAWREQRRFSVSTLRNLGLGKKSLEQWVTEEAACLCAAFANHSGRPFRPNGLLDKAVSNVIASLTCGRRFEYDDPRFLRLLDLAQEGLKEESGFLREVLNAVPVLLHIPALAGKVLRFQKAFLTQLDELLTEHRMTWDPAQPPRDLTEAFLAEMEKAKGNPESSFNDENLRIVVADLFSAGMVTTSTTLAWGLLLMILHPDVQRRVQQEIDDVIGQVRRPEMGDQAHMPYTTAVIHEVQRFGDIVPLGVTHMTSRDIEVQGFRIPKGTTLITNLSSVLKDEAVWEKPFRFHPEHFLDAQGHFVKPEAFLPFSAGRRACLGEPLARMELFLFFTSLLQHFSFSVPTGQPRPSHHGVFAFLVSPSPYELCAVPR

[5] = system: BJ; test: BJ-TERT fibroblast viability loss – cell-based, RAS-independent, luminescence, dose response (AID 1933); assay type: functional; settings: Homo sapiens
[6] = system: Vero; test: cells; assay type: functional, cell-based; settings: Chlorocebus sabaeus
[7] = HEK-293T viability loss after treatment – luminescence, T-cell screen hits, cytotoxicity control for TCR NF-kB inhibitor project, dose response (AID 489026); assay type: functional, cell-based;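 note: cells exposed to compound about 14 hours before the viability readout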
[8] = system: Vero; test: cells; assay type: functional; settings: Chlorocebus sabaeus
[9] = system: BJ; test: BJ-TERT-LT-ST fibroblast viability loss – cell-based, RAS-independent, luminescence, dose response (AID 1935); assay type: functional; settings: Homo sapiens;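 note: BJ fibroblasts immortalized with TERT plus LT and ST oncogenes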
[10] = luciferase reporter signal suppression in cells – H4 neuroglioma cells, luminescence, dose response (AID 1990); assay type: functional, cell-based
[11] = Luminescence Cell-Based Dose Response HTS to Identify Inhibitors of 5'UTR Stem-Loop Driven Prion Protein mRNA Translation in H4 Neuroglioblastoma Cells. [Related pubchem assays: 1827 (Project Summary), 1813 (Primary HTS)]; assay type: functional
[12] = alpha-synuclein stem-loop translation blockers – luminescence, H4 neuroglioblastoma cells, dose confirmation, confirmation (AID 2454); assay type: functional, cell-based;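 note: H4 neuroglioblastoma cells carrying an alpha-synuclein 5'UTR luciferase reporter; potency for inhibition of the luciferase signal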
[13] = DRD fibroblast viability loss – cell-based, non-viral oncogenic, luminescence, dose response (AID 1934); assay type: functional; settings: Homo sapiens
[14] = alpha-synuclein stem-loop luciferase translation blockers – H4 neuroglioma cells, luminescence, confirmation (AID 1988); assay type: functional, cell-based
[15] = cells; assay type: functional, cell-based
[16] = system: BJ; test: cells; assay type: functional, cell-based; settings: Homo sapiens
[17] = luciferase reporter signal reduction – luminescence, H4-C neuroglioblastoma cells, dose response (AID 2458); assay type: functional, cell-based;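 note: H4 neuroglioblastoma cells stably carrying a luciferase reporter gene fusion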
[18] = general cell-killing toxicity readout – plate reader, dry powder samples, cytotoxicity control for PAX8 inhibitor project, dose response (AID 743021); assay type: functional, cell-based
[19] = Luminescence-based counterscreen assay for KLF5 inhibitors: dose response cell-based high throughput screening assay to identify cytotoxic compounds using the IEC-6 intestinal epithelial cell line. [Related pubchem assays: 1700 (Primary screen.), 1834 (Confirmation screen.), 1858 (Summary AID.), 1905 (Counterscreen.)]; assay type: functional
[20] = system: Vero; test: mammalian cell viability reduction – secondary assay, cytotoxicity control for West Nile virus antiviral project, dose response (AID 1650); assay type: functional; settings: Chlorocebus sabaeus
[21] = system: BJ; test: growth inhibition of engineered Ras-driven BJ cells – cell-based, alamar blue fluorescence, cherrypicked samples, dose response (AID 2631); assay type: functional; settings: Homo sapiens;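 note: confirmatory dose-response assay in RAS-dependent BJ fibroblasts engineered with TERT, LT and ST, with cytotoxicity read by fluorescence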
[22] = target: Paired box protein Pax-8 (Homo sapiens, UniProt Q06710); test: PAX8 transcriptional activity inhibition in RMG-I – RMG-I cells, luciferase, cherry-pick, dose response (AID 687027); assay type: functional, cell-based;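 note: luciferase reporter driven by Pax8 target thyroperoxidase promoter measured by SteadyGlo luminescence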
Paired box protein Pax-8, sequence (Q06710 whole entry): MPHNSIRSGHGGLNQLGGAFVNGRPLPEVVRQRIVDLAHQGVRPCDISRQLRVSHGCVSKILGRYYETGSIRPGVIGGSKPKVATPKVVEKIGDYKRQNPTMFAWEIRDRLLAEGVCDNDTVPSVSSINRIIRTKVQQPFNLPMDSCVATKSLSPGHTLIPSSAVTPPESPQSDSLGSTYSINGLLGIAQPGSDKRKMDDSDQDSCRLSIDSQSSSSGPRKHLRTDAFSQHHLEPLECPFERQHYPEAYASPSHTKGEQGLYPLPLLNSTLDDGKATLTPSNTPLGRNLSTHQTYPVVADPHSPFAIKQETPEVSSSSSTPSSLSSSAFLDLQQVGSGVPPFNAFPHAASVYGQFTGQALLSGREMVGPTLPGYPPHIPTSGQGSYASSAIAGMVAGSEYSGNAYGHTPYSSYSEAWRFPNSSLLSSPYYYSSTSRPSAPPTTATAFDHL

[23] = target: T2, Streptokinase A (Streptococcus pyogenes serotype M1, UniProt P10520); test: viability-normalized secreted streptokinase activity reduction – plasminogen activation absorbance, OD405, dose response (AID 1914); assay type: functional, Streptococcus pyogenes M1 GAS;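 note: secreted streptokinase activity via plasminogen activation per viability signal from cell pellet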
T2 sequence (P10520 whole entry): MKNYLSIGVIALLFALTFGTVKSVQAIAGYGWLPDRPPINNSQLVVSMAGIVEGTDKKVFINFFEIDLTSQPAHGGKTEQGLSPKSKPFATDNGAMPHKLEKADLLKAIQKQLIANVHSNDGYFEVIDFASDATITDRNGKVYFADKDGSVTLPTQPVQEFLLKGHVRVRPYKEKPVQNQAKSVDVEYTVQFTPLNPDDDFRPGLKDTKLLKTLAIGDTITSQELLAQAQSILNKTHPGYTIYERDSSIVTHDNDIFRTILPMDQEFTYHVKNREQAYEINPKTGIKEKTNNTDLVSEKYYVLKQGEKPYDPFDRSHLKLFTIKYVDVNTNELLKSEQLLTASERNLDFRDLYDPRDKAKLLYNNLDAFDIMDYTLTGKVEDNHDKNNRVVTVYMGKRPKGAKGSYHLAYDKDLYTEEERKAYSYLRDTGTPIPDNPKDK

[24] = system: Streptococcus; test: Luminescence Microorganism-Based Dose Response Follow up to Identify Compounds Cytotoxic to Streptococcus. [Related pubchem assays: 1677 (Project Summary), 1915, 1914, 1902 (Retest at Dose), 1900 (Counter Screen), 1662 (Primary HTS)]; assay type: functional, organism-based
[25] = system: Streptococcus; test: GAS UMAA2166 growth inhibition – luminescence, BacTiterGlo, counter-screen for streptokinase expression inhibitor project, dose response (AID 1915); assay type: functional, organism-based;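 note: potency for reduction of bacterial viability or growth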
[26] = target: T3, Neuropeptides B/W receptor type 1 (Homo sapiens, UniProt P48145); test: Fluorescence-based dose response cell-based high throughput screening assay to identify antagonists of the G-protein coupled receptor 7 (GPR7). [Related pubchem assays: 1952 (Screening assay (GPR7 antagonists).), 1880 (Summary AID.)]; assay type: functional
T3 sequence (P48145 whole entry): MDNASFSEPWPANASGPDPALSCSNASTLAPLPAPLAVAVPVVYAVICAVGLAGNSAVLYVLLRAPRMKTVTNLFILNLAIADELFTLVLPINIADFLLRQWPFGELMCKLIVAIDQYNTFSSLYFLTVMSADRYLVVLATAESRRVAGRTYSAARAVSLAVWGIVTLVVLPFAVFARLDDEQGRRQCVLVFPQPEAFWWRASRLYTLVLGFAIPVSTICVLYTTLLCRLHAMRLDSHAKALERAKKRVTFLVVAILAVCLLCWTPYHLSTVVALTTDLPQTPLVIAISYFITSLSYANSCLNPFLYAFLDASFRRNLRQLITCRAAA

[27] = target: Melanin-concentrating hormone receptor 1 (Homo sapiens, UniProt Q99705); test: Fluorescence-based counterscreen for antagonists of the G-protein coupled receptor 7 (GPR7): cell-based high throughput dose response assay to identify antagonists of the melanin-concentrating hormone receptor 1 (MCHR1).; assay type: functional
Melanin-concentrating hormone receptor 1, sequence (Q99705 whole entry): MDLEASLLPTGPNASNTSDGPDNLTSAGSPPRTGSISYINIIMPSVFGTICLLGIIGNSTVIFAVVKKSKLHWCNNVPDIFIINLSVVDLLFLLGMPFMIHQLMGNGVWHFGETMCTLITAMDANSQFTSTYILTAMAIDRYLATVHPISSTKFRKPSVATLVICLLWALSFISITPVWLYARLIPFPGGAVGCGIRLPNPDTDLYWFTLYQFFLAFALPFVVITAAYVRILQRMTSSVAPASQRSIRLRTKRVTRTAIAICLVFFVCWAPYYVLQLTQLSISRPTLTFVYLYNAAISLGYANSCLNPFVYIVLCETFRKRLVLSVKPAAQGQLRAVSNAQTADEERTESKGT

[28] = target: T1, Cytochrome P450 2D6
[29] = target: T4, RNA-binding protein pos-1 (Caenorhabditis elegans, UniProt G5EF15); test: disruptors of C. elegans POS-1 RNA interaction – biochemical, fluorescence polarization, dose response (AID 1964);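 note: purified POS-1 fused to maltose binding protein made in E. coli; potency of compounds blocking POS-1 binding to fluorescent RNA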
T4 sequence (G5EF15 whole entry): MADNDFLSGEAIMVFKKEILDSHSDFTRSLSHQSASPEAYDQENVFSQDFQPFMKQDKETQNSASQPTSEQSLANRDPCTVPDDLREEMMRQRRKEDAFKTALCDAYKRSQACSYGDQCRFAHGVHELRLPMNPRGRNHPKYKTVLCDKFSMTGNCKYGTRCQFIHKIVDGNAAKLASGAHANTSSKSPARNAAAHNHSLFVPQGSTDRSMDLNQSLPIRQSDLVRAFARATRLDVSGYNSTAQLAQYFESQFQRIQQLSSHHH

[30] = target: NS3 (Hepatitis C virus, UniProt A3EZJ3); test: PubChem AID 2173; parameters: species or system Hepacivirus hominis
NS3, sequence (A3EZJ3 whole entry, the tested form may be a part): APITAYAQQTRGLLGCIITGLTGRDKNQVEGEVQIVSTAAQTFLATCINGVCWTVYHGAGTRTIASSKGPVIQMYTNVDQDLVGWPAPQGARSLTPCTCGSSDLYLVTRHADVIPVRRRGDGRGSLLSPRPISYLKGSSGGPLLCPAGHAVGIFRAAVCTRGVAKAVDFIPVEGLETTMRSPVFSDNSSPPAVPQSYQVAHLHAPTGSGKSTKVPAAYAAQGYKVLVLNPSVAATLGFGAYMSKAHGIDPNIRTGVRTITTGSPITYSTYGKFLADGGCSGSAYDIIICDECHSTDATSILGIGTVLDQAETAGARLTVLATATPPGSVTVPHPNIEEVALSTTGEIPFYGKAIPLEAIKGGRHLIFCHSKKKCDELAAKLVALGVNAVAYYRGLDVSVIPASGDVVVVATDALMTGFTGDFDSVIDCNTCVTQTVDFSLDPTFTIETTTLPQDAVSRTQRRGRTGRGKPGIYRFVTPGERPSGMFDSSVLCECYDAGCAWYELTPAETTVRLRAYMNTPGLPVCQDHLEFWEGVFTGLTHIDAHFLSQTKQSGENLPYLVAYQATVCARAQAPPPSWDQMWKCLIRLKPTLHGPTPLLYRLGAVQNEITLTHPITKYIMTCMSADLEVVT

[31] = target: T5, Polyadenylate-binding protein 1 (Homo sapiens, UniProt P11940); test: MLLE domain peptide-binding blockers, IC50 – biochemical, fluorescence polarization, FITC-PAM2 peptide, dose response (AID 602259); assay type: functional; settings: read-out: IC50_Mean
T5 sequence (P11940 whole entry, the tested form may be a part): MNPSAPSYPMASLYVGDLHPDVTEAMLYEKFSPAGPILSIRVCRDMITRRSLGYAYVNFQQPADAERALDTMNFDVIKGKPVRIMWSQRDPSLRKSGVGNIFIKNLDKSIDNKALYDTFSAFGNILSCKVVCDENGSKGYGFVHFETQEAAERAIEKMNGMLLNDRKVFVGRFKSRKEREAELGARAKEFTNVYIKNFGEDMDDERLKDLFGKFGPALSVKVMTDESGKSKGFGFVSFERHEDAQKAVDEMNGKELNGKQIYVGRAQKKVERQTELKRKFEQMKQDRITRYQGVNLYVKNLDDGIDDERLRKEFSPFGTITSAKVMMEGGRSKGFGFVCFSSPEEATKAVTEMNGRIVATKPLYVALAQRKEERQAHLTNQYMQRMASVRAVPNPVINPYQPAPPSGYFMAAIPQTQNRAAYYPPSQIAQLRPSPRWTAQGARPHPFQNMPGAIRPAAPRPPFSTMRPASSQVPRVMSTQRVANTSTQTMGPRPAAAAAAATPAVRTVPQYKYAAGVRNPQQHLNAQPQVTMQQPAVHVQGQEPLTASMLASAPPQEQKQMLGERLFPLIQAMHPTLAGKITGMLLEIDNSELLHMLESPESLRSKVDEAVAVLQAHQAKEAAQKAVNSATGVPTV

[32] = target: T6, Zinc finger protein mex-5 (Caenorhabditis elegans, UniProt Q9XUB2); test: potency of MEX-5 RNA-binding blockers – biochemical, C. elegans, fluorescence polarization, dose response (AID 1960)
T6 sequence (Q9XUB2 whole entry): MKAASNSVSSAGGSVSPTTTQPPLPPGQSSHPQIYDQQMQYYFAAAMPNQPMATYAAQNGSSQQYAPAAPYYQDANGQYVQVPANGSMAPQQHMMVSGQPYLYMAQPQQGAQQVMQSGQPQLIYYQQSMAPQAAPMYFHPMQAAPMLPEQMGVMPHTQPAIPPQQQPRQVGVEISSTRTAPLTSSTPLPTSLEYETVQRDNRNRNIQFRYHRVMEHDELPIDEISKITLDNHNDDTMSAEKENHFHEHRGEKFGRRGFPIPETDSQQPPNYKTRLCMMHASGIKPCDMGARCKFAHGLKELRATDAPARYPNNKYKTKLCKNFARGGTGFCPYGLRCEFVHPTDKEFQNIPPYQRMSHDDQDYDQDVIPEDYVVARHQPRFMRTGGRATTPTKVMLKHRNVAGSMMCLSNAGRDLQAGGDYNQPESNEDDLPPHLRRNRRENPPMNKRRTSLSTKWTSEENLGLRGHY

[33] = target: T7, Estrogen receptor (Homo sapiens, UniProt P03372);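 note: potency for inhibiting coactivator peptide recruitment to the receptor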
T7 sequence (P03372 whole entry): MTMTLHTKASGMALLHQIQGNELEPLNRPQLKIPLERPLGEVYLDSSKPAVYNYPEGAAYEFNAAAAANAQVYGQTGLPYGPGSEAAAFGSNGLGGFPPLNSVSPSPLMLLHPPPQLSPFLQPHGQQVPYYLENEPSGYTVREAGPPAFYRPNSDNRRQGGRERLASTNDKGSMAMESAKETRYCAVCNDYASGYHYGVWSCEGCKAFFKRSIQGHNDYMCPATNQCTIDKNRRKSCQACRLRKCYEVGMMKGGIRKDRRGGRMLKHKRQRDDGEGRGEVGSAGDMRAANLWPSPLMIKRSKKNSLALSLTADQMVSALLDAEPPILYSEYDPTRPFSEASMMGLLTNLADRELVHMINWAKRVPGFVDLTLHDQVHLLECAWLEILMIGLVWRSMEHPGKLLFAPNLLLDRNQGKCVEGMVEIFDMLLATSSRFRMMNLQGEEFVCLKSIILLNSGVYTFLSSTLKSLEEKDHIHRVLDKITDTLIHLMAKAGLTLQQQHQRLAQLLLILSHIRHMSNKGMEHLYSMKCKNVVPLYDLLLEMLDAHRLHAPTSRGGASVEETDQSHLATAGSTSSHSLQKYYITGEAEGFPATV

[34] = target: T5, Polyadenylate-binding protein 1; test: MLLE binding blockers, Cy5 peptide tracer – biochemical, fluorescence polarization, Cy5-PAM2 peptide, secondary, miRNA deadenylation inhibitor project, dose response (AID 602260); assay type: functional; settings: read-out: IC50_Mean

Peroxisome proliferator-activated receptor gamma/Nuclear receptor coactivator 2, sequence (P37231 whole entry): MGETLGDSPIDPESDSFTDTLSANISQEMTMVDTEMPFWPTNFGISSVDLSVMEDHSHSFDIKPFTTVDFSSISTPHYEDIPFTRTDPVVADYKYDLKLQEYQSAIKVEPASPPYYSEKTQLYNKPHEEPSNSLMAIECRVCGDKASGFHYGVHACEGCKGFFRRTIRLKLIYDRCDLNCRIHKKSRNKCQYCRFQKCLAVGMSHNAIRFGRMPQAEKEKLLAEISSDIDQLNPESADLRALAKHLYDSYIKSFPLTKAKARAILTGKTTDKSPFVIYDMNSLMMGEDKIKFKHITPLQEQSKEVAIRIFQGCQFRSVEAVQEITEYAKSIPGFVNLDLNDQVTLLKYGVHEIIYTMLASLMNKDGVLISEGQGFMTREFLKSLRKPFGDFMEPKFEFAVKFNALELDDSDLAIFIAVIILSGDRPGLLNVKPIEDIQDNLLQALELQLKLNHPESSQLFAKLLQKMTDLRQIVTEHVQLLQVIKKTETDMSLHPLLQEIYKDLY
Peroxisome proliferator-activated receptor gamma/Nuclear receptor coactivator 2, sequence (Q15596 whole entry, further chain): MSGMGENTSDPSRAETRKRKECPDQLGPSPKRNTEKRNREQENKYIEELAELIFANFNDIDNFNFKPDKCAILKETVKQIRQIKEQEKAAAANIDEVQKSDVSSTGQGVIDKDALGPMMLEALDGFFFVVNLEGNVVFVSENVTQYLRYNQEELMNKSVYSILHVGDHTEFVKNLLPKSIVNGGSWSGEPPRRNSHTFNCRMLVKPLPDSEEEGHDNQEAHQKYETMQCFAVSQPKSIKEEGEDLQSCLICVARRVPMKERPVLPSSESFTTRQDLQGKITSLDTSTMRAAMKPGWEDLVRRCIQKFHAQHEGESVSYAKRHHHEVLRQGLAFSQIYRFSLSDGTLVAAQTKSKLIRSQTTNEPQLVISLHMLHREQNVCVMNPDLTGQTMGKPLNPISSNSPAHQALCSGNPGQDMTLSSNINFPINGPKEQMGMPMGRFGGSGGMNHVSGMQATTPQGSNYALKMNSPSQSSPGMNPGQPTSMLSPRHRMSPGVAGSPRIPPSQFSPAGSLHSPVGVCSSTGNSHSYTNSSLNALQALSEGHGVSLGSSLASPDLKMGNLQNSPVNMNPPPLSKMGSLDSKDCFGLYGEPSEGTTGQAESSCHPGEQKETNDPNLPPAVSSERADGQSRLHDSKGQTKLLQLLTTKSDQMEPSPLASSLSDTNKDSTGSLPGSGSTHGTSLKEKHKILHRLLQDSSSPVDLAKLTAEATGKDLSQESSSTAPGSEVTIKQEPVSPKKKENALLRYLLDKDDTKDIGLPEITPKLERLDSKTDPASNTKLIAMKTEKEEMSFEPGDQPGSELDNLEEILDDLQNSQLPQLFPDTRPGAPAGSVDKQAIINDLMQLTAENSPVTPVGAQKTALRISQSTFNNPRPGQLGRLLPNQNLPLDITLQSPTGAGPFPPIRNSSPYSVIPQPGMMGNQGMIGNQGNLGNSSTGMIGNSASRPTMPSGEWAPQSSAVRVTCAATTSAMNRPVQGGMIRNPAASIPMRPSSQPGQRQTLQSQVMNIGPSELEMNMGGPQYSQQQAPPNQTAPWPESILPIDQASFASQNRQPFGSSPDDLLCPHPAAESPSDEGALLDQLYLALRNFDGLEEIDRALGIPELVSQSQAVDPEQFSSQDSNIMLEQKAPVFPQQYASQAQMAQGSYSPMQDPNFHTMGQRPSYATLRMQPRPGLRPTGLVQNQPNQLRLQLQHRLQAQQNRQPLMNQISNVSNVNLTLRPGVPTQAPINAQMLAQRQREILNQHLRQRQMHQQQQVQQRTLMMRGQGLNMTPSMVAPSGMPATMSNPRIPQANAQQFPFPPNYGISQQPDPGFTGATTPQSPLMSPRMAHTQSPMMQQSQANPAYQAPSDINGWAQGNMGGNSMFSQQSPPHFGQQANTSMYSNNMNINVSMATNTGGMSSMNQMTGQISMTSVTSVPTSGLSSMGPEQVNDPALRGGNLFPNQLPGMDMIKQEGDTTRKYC

In the case of `O=C(CCN1C(=O)c2ccccc2C1=O)Nc1ccc(-c2nc3ccccc3o2)cc1`, the EC50 [1] is reported as 71.6 µM (not active), the EC50 [2] is reported as 74.4 µM (not active) and the EC50 [3] is reported as > 79.4 µM (not active).
For `CC(C)[C@@]1(NC(=O)[C@@H]2C[C@H]3c4cccc5[nH]cc(c45)C[C@@H]3N(C)C2)O[C@@]2(O)[C@H]3CCCN3C(=O)[C@@H](Cc3ccccc3)N2C1=O`, the AC50 [4] was 31.6 µM (inconclusive).
In the case of `CCCC/N=C/[C@]12CCC(O)CC1(O)CCC1[C@@H]2CC[C@]2(C)[C@H](C3C=CC(=O)O3)CCC12O` (some centres undefined), the EC50 [5] is reported as 321 nM (active), the IC50 [6] is reported as < 50 nM (active) and the IC50 [7] is reported as > 80 µM (inactive). The CC50 [8] was 1.27 µM (active), the EC50 [9] was 3.01 µM (inconclusive) and the EC50 [10] was < 100 nM (active). For the same molecule, the EC50 [11] was < 100 nM (active), the EC50 [12] was 203 nM (active) and the EC50 [13] was 372 nM (active). The EC50 [14] was < 100 nM (active), the EC50 [15] was 263 nM (active) and the EC50 [16] was 538 nM (active). For the same molecule, the EC50 [17] was 238 nM (active), the AC50 [18] was 55.4 µM (active) and the IC50 [19] was > 39.8 µM (not active). For the same molecule, the CC50 [20] was 960 nM (active), the EC50 [21] was 450 nM (active) and the AC50 [22] was 2.19 µM (active).
With `Cc1cc(C)c(NC(=O)c2oc3ccccc3c2COc2ccccc2)c(C)c1` the EC50 [23] was 6.21 µM (active), the EC50 [24] was 122 µM (active) and the EC50 [25] was > 150 µM (not active).
With `Cc1ccc(NCC(=O)N/N=C/c2ccc(OC(=O)c3ccco3)cc2)cc1` the IC50 [26] was > 43.8 µM (not active), the IC50 [27] was > 43.8 µM (not active) and the AC50 [28] was 15.8 µM (inconclusive).
With `CCOc1ccc(/C=c2\sc3nc(-c4ccco4)nn3c2=O)cc1OCC` the EC50 [29] was > 300 µM (not active), the IC50 [30] was 24.7 µM (not active) and the IC50 [31] was 48.8 µM (inactive). For the same molecule, the EC50 [32] was > 300 µM (not active), the IC50 [33] was > 50 µM (not active) and the IC50 [34] was > 66 µM (inactive).
